The text below walks through data of patent US20210395327A1, “Growth Hormone-Releasing Hormone Antagonists and Uses Thereof” (United States Government As Represented By The Department …, priority 2019, published 2021).

Each structure is given as a SMILES string. “Also recorded” adds a separate entry of the source. Non-standard residues stand in square brackets, D forms with d. Residues, ends and D or L forms follow the SMILES beside them. *: point of attachment. Phenylacetyl(2,3,4,5,6-F5) = O=C(Cc1c(F)c(F)c(F)c(F)c1F)*; Phe(F5) = N[C@@H](Cc1c(F)c(F)c(F)c(F)c1F)C(=O)O; Phe(4-Cl) = N[C@@H](Cc1ccc(Cl)cc1)C(=O)O; hArg = N=C(N)NCCCC[C@H](N)C(=O)O; 12Ado = NCCCCCCCCCCCC(=O)O; Nle = CCCC[C@H](N)C(=O)O; Orn = NCCC[C@H](N)C(=O)O; Abu = CC[C@H](N)C(=O)O; PhAc = O=C(Cc1ccccc1)*

Assay [1] relates to pancreatic cancer CFPAC-1 xenograft. Description: Xenograft tumor growth in nude mice, CFPAC-1. The class given is in vivo. Particulars: Table 4I, Pancreatic Ca CFPAC-1, 7 weeks; for % Inhibition: vs control. On the procedure: (§1) The peptides' activity was compared with GHRH antagonist MIA-602. All statistical analyzses were performed from comparing GHRA antagonists to non-treated tumor (control).
(§2) Peptides and chemicals. GHRH antagonists MIA-602 and AVR-GHRH antagonists (see Table 2 above) were synthesized by solid phase methods and purified by HPLC. The peptides were dissolved in DMSO and further diluted in 10% 1,2-propanediol. The final concentration of peptides was 50 µg/ml in 10% 1,2-propanediol containing 0.1% of DMSO.
(§3) Cell culture. Human cancer cell lines including pancreatic (PANC-1 and CFPAC-1), lung (HCC827 and H460), stomach (NCI-N87), prostate (PC3), brest (MX-1 and HCC-1806), colorectal (HT-29), and ovarian (SK-OV-3 and OVCAR-3) were obtained from the American Type Culture Collection (ATCC) and cultured at 37° C. in a humidified 95% air/5% CO2 atmosphere in the medium recommended by ATCC.
(§4) Xenograft models of human cancers in nude mice. Female athymic (NCr nu/nu) nude mice, 5- to 6-weeks-old, obtained from the Envigo labs (Tampa, Fla.), were housed in laminar airflow cabinets under pathogen-free conditions with a 12-h light/12-h dark schedule, and were fed autoclaved standard chow and water. To generate mice with xenografted tumors, tumor xenografts were initiated by subcutaneous (s.c.) injection of 107 human cancer cells into female nude mice. After about 4 weeks the resulting tumors were dissected and collected after removing necrosis tissues. The tumors were then cut into particles with size of 3 mm3 and transplanted s.c. by trocar needle into experimental animals. When tumors grew to the size of 50-60 mm3 (by volume), mice were randomized into groups and treated daily for 4-8 weeks by subcutaneous administration of 5 μg of GHRH antagonists MIA-602 or AVR-compounds (2-10 μg as indicated), or vehicle solutions (0.1% DMSO in 10% 1,2-propanediol) respectively. Tumor sizes were measured weekly.
(§5) Statistical analysis. One-way ANOVA followed by Bonferroni comparison were performed. Data are expressed as Mean±SEM. To determine statistical significance between animal groups, two-tailed Student's t-test was conducted. Differences were considered significant when p<0.05.
(§6) Results. […] FIG. 1A-N represents in vivo inhibition of tumor growth during the treatment with GHRH antagonist MIA-602 and selected AVR antagonists in nude mice xenografted with various human tumors including pancreatic cancer PANC-1 (FIG. 1A) and CFPAC-1 (FIG. 1I); lung cancer HCC827 (FIGS. 1B, C) and H460 (FIG. 1H); stomach cancer N87 (FIGS. 1D-F); colon cancer HT-29 (FIG. 1G); breast cancer MX-1 and HCC-1806 (FIGS. 1J, K); ovarian cancer SK-OV-3 and OVACAR-3 (FIGS. 1 L, M) and prostate cancer PC3 (FIG. 1N). See also Table 5.

The target in assay [2] is T1, membrane GHRH-receptors on human anterior pituitary cells (Homo sapiens, UniProt Q02643).
T1 construct: Human pituitary was purchased from the National Hormone and Peptide Program; tissue National Hormone and Peptide Program; host or cells: human pituitary (membrane fractions)
T1 sequence (Q02643 23-423): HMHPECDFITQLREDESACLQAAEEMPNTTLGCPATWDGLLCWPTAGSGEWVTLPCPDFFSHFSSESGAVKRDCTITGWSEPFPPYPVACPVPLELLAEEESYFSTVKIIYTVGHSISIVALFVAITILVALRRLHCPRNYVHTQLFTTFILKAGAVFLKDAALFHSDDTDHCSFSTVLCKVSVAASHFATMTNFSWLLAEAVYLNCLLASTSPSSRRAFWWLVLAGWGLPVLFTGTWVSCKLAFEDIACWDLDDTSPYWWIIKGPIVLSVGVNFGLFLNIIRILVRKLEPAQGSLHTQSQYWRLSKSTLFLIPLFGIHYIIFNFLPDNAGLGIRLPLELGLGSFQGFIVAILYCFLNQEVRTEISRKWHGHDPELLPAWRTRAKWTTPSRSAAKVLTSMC
Description: Receptor binding, displacement of 125I-[His1,Nle27]-hGH-RH(1-32)NH2 on human pituitary membranes. Conditions: for binding affinity to membrane receptors of human pituitary cells (in words): competitive binding, human pituitary membrane fractions. The essentials: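 Membrane fractions from human pituitary; peptides displace 125I-[His1,Nle27]-hGH-RH(1-32)NH2. IC50 is the dose giving 50% inhibition of specific binding, from duplicate tubes. Relative affinity is the ratio of test IC50 to hGH-RH(1-29)NH2 IC50.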
Background: In a radioligand displacement assay an active substance lowers the binding of a labelled ligand.

Assay [3] relates to prostate cancer PC3 xenograft. The assay can be described thus: Xenograft tumor growth in nude mice, PC3. The class given is in vivo. Conditions: Table 4N, Prostate Ca PC3, 8 weeks, 5 μg/day s.c.; for % Inhibition: vs control. The protocol: as §1, §2, §3, §4, §5, §6
Assay [4] concerns colon cancer HT-29 xenograft. Description: Xenograft tumor growth in nude mice, HT-29. Type of assay: in vivo. Conditions: Table 4G, Colon Ca HT-29, 6 weeks; for % Inhibition: vs control. The protocol:
as §1, §2, §3, §4, §5, §6

Assay [5] relates to ovarian cancer SK-OV-3 xenograft. The assay can be described thus: Xenograft tumor growth in nude mice, SK-OV-3. Type of assay: in vivo. Conditions: Table 4L, Ovarian Ca SK-OV-3, 7 weeks; for % Inhibition: vs control. The protocol: as §1, §2, §3, §4, §5, §6

`CCCC[C@H](NC(=O)[C@@H](NC(=O)[C@H](CC(=O)O)NC(=O)[C@H](CCC(N)=O)NC(=O)[C@H](CC(C)C)NC(=O)[C@H](CC(C)C)NC(=O)[C@H](CCCCN)NC(=O)[C@H](CCCNC(=N)N)NC(=O)[C@H](C)NC(=O)[C@H](CO)NC(=O)[C@H](CC(C)C)NC(=O)[C@H](CCC(N)=O)NC(=O)[C@H](CC)NC(=O)[C@H](CC(C)C)NC(=O)[C@@H](NC(=O)[C@H](CCCCN)NC(=O)[C@H](CCCNC(=N)N)NC(=O)[C@H](Cc1c(F)c(F)c(F)c(F)c1F)NC(=O)[C@H](CCCCNC(=N)N)NC(=O)[C@H](C)NC(=O)[C@@H](NC(=O)[C@H](Cc1ccc(Cl)cc1)NC(=O)[C@@H](NC(=O)[C@H](C)NC(=O)[C@H](CC(=O)O)NC(=O)[C@@H](CCCNC(=N)N)NC(=O)[C@H](Cc1ccc(O)cc1)NC(=O)CCCCCCCCCCCNC(=O)Cc1c(F)c(F)c(F)c(F)c1F)[C@@H](C)CC)[C@@H](C)O)C(C)C)[C@@H](C)CC)C(=O)N[C@H](CCCNC(=N)N)C(=O)N[C@@H](CCCCNC(=N)N)C(=O)NCCCCCCCCCCCC(N)=O` [AVR-353, 5FPhAC-Ada-Tyr-DArg-Asp-Ala-Ile-Cpa-Thr-Ala-Har-5FPhe-Arg-Lys-Val-Leu-Abu-Gln-Leu-Ser-Ala-Arg-Lys-Leu-Leu-Gln-Asp-Ile-Nle-DArg-Har-Ada-NH2] ({Phenylacetyl(2,3,4,5,6-F5)-12Ado}-Y[dR]DAI[Phe(4-Cl)]TA[hArg][Phe(F5)]RKVL[Abu]QLSARKLLQDI[Nle][dR][hArg][12Ado]-NH2): the “Tumor Growth %” value in assay [1] (2.5 μg/day s.c.) is reported as 1294.1%; in assay [1] (5 μg/day s.c.), 1077.6%. In addition, the “% Inhibition” value turned out to be 34.3% in assay [1] (2.5 μg/day s.c.); 46.2% in assay [1] (5 μg/day s.c.); 39.9% in assay [3]; 24.2% in assay [4] (2 μg/day s.c.); 31.8% in assay [4] (5 μg/day s.c.); 19.1% in assay [5] (2.5 μg/day s.c.). For the same molecule, the “% Inhibition” value in assay [5] (5 μg/day s.c.) is on record as 30.9%. Also, in assay [2], the “binding affinity to membrane receptors of human pituitary cells (in words)” value is “higher binding affinity in comparison to MIA-602; also recorded: highest binding affinities”. In addition, the IC50 in assay [2] (membrane receptors on human anterior pituitary cells, mean of two to three determinations, read-out: IC50) amounted to 0.11 nM. In addition, the “Tumor Size (mm3)” value in assay [3] worked out at 496.7 mm3; in assay [5] (2.5 μg/day s.c.), 1056.0 mm3; in assay [5] (5 μg/day s.c.), 910.7 mm3. Besides, the “Tumor Size (mm^3)” value is given as 549.30 mm^3 in assay [4] (2 μg/day s.c.) and 494.70 mm^3 in assay [4] (5 μg/day s.c.).

As to `CCCC[C@H](NC(=O)[C@@H](NC(=O)[C@H](CC(=O)O)NC(=O)[C@H](CCC(N)=O)NC(=O)[C@H](CC(C)C)NC(=O)[C@H](CC(C)C)NC(=O)[C@H](CCCCN)NC(=O)[C@H](CCCNC(=N)N)NC(=O)[C@H](C)NC(=O)[C@H](CO)NC(=O)[C@H](CC(C)C)NC(=O)[C@H](CCC(N)=O)NC(=O)[C@H](CC)NC(=O)[C@H](CC(C)C)NC(=O)[C@@H](NC(=O)[C@H](CCCCN)NC(=O)[C@H](CCCNC(=N)N)NC(=O)[C@H](Cc1c(F)c(F)c(F)c(F)c1F)NC(=O)[C@H](CCCCNC(=N)N)NC(=O)[C@H](C)NC(=O)[C@@H](NC(=O)[C@H](Cc1ccc(Cl)cc1)NC(=O)[C@@H](NC(=O)[C@H](C)NC(=O)[C@H](CC(=O)O)NC(=O)[C@@H](CCCNC(=N)N)NC(=O)[C@H](Cc1ccc(O)cc1)NC(=O)CCCCCCCCCCCNC(=O)Cc1c(F)c(F)c(F)c(F)c1F)[C@@H](C)CC)[C@@H](C)O)C(C)C)[C@@H](C)CC)C(=O)N[C@H](CCCNC(=N)N)C(=O)N[C@@H](CCCCNC(=N)N)C(=O)NCCCCCCCCCCCC(=O)NC` [AVR-354] ({Phenylacetyl(2,3,4,5,6-F5)-12Ado}-Y[dR]DAI[Phe(4-Cl)]TA[hArg][Phe(F5)]RKVL[Abu]QLSARKLLQDI[Nle][dR][hArg][12Ado]-NHMe), the “binding affinity to membrane receptors of human pituitary cells (in words)” value in assay [2] is “higher binding affinity in comparison to MIA-602; also recorded: highest binding affinities”. In assay [3], the “Tumor Size (mm3)” value stood at 343.6 mm3 and the “% Inhibition” value stood at 58.4%. In assay [4] (5 μg/day s.c.), the “Tumor Size (mm^3)” value stood at 417.90 mm^3 and the “% Inhibition” value is listed as 42.3%.

As to `CCCC[C@H](NC(=O)[C@@H](NC(=O)[C@H](CC(=O)O)NC(=O)[C@H](CCC(N)=O)NC(=O)[C@H](CC(C)C)NC(=O)[C@H](CC(C)C)NC(=O)[C@H](CCCN)NC(=O)[C@H](Cc1c[nH]cn1)NC(=O)[C@H](C)NC(=O)[C@H](CO)NC(=O)[C@H](CC(C)C)NC(=O)[C@H](CCC(N)=O)NC(=O)[C@H](CC)NC(=O)[C@H](CC(C)C)NC(=O)[C@@H](NC(=O)[C@H](CCCN)NC(=O)[C@H](Cc1c[nH]cn1)NC(=O)[C@H](Cc1ccc(OC)cc1)NC(=O)[C@H](CCCCNC(=N)N)NC(=O)[C@H](C)NC(=O)[C@@H](NC(=O)[C@H](Cc1c(F)c(F)c(F)c(F)c1F)NC(=O)[C@@H](NC(=O)[C@H](C)NC(=O)[C@H](CC(=O)O)NC(=O)[C@@H](CCCNC(=N)N)NC(=O)[C@H](Cc1ccc(O)cc1)NC(=O)CCCCCCCCCCCNC(=O)Cc1ccccc1)[C@@H](C)CC)[C@@H](C)O)C(C)C)[C@@H](C)CC)C(=O)N[C@H](CCCNC(=N)N)C(=O)N[C@@H](CCCCNC(=N)N)C(N)=O` [MIA-602, PhAC-Ada, Tyr D-Arg, Asp, Ala, Ile, 5FPhe, Thr, Ala, Har, Tyr(Me), His, Orn, Val, Leu, Abu, Gin, Leu, Ser, Ala, His, Om, Leu, Leu, Gin, Asp, Ile; Nle, D-Arg, Har NH2, reference compound] ({PhAc-12Ado}-Y[dR]DAI[Phe(F5)]TA[hArg]Y(Me)H[Orn]VL[Abu]QLSAH[Orn]LLQDI[Nle][dR][hArg]-NH2), in assay [1] (5 μg/day s.c.), the “Tumor Growth %” value is 1587.5% and the “% Inhibition” value was 19.5%. In addition, in assay [3], the “Tumor Size (mm3)” value was found to be 450.9 mm3 and the “% Inhibition” value worked out at 45.5%. Further, in assay [4] (5 μg/day s.c.), the “Tumor Size (mm^3)” value was determined as 582.10 mm^3 and the “% Inhibition” value turned out to be 16.5%. Also, in assay [5] (5 μg/day s.c.), the “Tumor Size (mm3)” value was determined as 810.1 mm3 and the “% Inhibition” value worked out at 38.0%.

In general, % Inhibition refers to the relative decrease from the control value, in per cent. The term IC50 denotes the concentration at which inhibition is half-maximal.
